Laboratory results taken from patent US8933071B2, “Dimethyl fasudil for inducing polyploidization of megakaryocytes and for treating blood and bone marrow diseases and disorders” (Northwestern University, priority 2008, dated 2015).

Tests used:
[1] = system: primary murine megakaryocytes; assay: Polyploidization of primary murine megakaryocytes; format: cell-based; conditions: data not shown
Description: (§1) To study how megakaryocytes switch from a proliferative to endomitotic cell cycle, the Src kinase inhibitor SU6656 is being utilized.

CMK cells [2] = assay: CMK cell proliferation (cell numbers enumerated); format: cell-based, human; conditions: CMK cells, 0, 24, 48 and 72 h
Method: (§2) FIG. 2 illustrates that SU6656 induces polyploidization and proliferative arrest of megakaryocytic leukemia cells. (A) Y10, (B) GIME, and (C) CMK cells were grown in the presence of TPO, SU6656, or vehicle (DMSO) for 72 hours. DNA content was measured by flow cytometry. The percentages of cells that reach a DNA content of ≧8N are boxed in A and C, those equal to 8N are boxed in B. D) CMK cells were grown as in (C), and cell numbers were enumerated at 0, 24, 48 and 72 h.
as §1

[3] = system: wild-type and GATA-1 mutant megakaryocyte progenitors; assay: Proliferation of megakaryocyte progenitors; format: cell-based; conditions: preliminary data
Description: The paradigm for successful, targeted differentiation therapy is the use of all trans retinoic acid (ATRA) for treatment of Acute Promyelocytic Leukemia (APL) (for a review, see (20). Prior to the development of ATRA therapy, the prognosis for patients with APL, which represents 5-10% of adult AML, was very poor. In contrast, the vast majority of APL patients treated with ATRA achieve hematologic remission (21-23). One aim of the current study is to test novel therapeutic strategies for AMKL, in particular, whether the forced induction of MK polyploidization can serve as a “differentiation therapy” for AMKL. […] Furthermore, megakaryocytes are one of the few cell types that are poised to undergo polyploidization during normal maturation.

[4] = system: CMK (human megakaryocytic leukemia) cells; assay: High throughput screen for inducers of megakaryocyte polyploidization; format: cell-based; conditions: 10 μM, 72 hours, Hoescht stain, high content imaging
Method: In collaboration with the Broad Institute, a high throughput screen for small molecules was conducted to identify small molecules that preferentially induce polyploidization or differentiation of megakaryocytes. We screened 10,000 compounds from the Broad's extensive collection of small molecules (including known bioactives, kinase and HDAC inhibitors, and natural products) to identify inducers of megakaryocyte polyploidization. The screen was performed in the following manner: 1) 4,000 CMK (human megakaryocytic leukemia) cells were plated into each well of a 384-well plate, 2) 100 n1 of compounds (yielding a final concentration of 10 μM) were pinned into the wells, 3) plates were incubated at 37° C. for 72 hours, 4) cells were fixed and stained with Hoescht, and 5) plates were imaged using an ImageXpressMICRO high content imager with 20× objective. Nine images per well were collected. 6) Data were analyzed using both MetaXpress software and “Cell Profiler,” software designed at MIT and the Broad Institute. Seventy-two plates containing duplicates of nearly 10,000 small molecules were screened.

GIME cells = assay: Polyploidization of GIME cells (DNA content by flow cytometry); format: cell-based; conditions: GATA1-null (GIME) cells, 72 hours
Method: as §2, with “(A)” for “FIG. 2 illustrates that SU6656 induces polyploidization and proliferative arrest of megakaryocytic leukemia cells. (A)”
DNA content was then assessed by flow cytometry. Numbers above the bar indicate % of cells ≧8N. b) After 48 hours, GIME cells from a) were stained with anti-CD42 antibodies and the cell surface expression of CD42 was evaluated by flow cytometry.
as §1

CMK cells [5] = assay: Polyploidization of CMK cells (DNA content); format: cell-based, human; conditions: GATA1/JAK3 double mutant CMK cell line, 72 hours
Method: as §2, with “(A)” for “FIG. 2 illustrates that SU6656 induces polyploidization and proliferative arrest of megakaryocytic leukemia cells. (A)”
as §1
In collaboration with the Broad Institute, a high throughput screen for small molecules was conducted to identify small molecules that preferentially induce polyploidization or differentiation of megakaryocytes. We screened 10,000 compounds from the Broad's extensive collection of small molecules (including known bioactives, kinase and HDAC inhibitors, and natural products) to identify inducers of megakaryocyte polyploidization. […] 6) Data were analyzed using both MetaXpress software and “Cell Profiler,” software designed at MIT and the Broad Institute. […]

Y10 cells = assay: Polyploidization of Y10 cells (DNA content by flow cytometry); format: cell-based; conditions: wild-type (Y10) cells, 72 hours
Method: as §2, §1

**Q.** `CN(C)S(=O)(=O)c1ccc2c(c1)/C(=C/c1cc3c([nH]1)CCCC3)C(=O)N2` [SU6656] was tested. Which polyploidization [1] did it give?
**A.** promote polyploidization

**Q.** What about the “proliferation (cell numbers)” value (CMK cells [2]) of the same compound?
**A.** cessation of proliferation

**Q.** What about the “proliferation of megakaryocyte progenitors” value [3] of the same compound?
**A.** effectively reduces proliferation

**Q.** What about the “positive in polyploidization screen” value [4] of the same compound?
**A.** positives

**Q.** What about the polyploidization (GIME cells) of the same compound?
**A.** efficiently promoted polyploidization

**Q.** And the polyploidization (CMK cells [5])?
**A.** efficiently promoted polyploidization

**Q.** And the polyploidization (Y10 cells)?
**A.** efficiently promoted polyploidization
